Consider one compound from patent US20040106135A1, “Assay for PPAR ligand dependent gene modulation” (priority 2002, published 2004).

The test system of assay [1] is HK-2 cells. The experiment in a line: Transcriptional profiling by DNA microarray, HK-2 cells. The settings on record: 300 nM GW9578, 24 hours. The class given is cell-based, human. How it is done: Points corresponding to PDK-4 and ADRP are highlighted in the plot. Points falling outside of the inner lines are changed by greater than 2-fold; those falling outside the outer lines by greater than 3-fold.
Expression profiling: Expression profiling of RNA samples was performed essentially as described (Lockhart et al., (1996) Nat. Biotechnol. 14:1675-80) using the Affymetrix human U95Av2 array. Briefly, RNA was isolated from 100 mm cell culture dishes, DNased, and 15 μg used as a template for double stranded cDNA synthesis according to standard protocols (Invitrogen). Reverse transcription was primed using a T7-modified oligo-dT primer (5-[…]-d(T)24-3′) (SEQ ID NO: 1). In vitro transcription was then performed on each double stranded cDNA synthesis, according to the manufacturer's (Enzo Diagnostics) instructions. The resultant cRNA products were purified using RNeasy columns (Qiagen), pooled, and quantitated spectrophotometrically. […]
Data Analysis: Affymetrix CEL files from GeneChip 4.0 (Affymetrix) were imported into Resolver 2.0 under an empirically derived Affymetrix error model (Rosetta Inpharmatics). […] Accordingly, the statistical significance (P-value) of a given expression data point takes into account the underlying error associated with the Affymetrix transcript abundance measurements as determined by this platform-specific error model. […]

Assay [2] has as its system hamster PDK-4 mRNA in liver. The experiment in a line: PDK-4 mRNA induction in liver of fat-fed hamsters. Format: in vivo. The settings on record: single dose (GW9578 3 mg/kg, fenofibrate 100 mg/kg, gemfibrozil 500 mg/kg), 16 hour post-treatment. On the procedure:
FIG. 4A is a bar graph depicting the induction of PDK-4 mRNA in hamster liver by PPARα ligands. […] After 16 hours, the tissues were harvested, total RNA isolated and levels of hamster PDK-4 mRNA were detected by RT-PCR. The values are normalized to 18S rRNA levels. The mean and SEM of three individual animals are shown.
PDK-4 plays a critical role in regulating glucose metabolism by phosphorylating and inactivating the pyruvate dehydrogenase complex in response to increased fatty acid oxidation. […] To investigate the response of PDK-4 to fibrate treatment in vivo, in another aspect of the present invention the fat-fed hamster model was employed, which closely mimics the serum lipid profiles of humans than other rodent models (Sullivan et al., (1993) Lab. Anim. Sci. 43:575-578). […] These doses were previously shown to yield maximal effects on blood triglycerides in hamster. […] In hamster kidney, the basal levels of PDK-4 mRNA were approximately 10-fold higher than in the liver (FIG. 4B). […] Fibrates are effective treatments for lowering serum triglyceride levels. To verify that the doses used in this study were efficacious, blood triglyceride levels were monitored over a 48 hour time course.
Real-time PCR: Fluorescence-based real-time PCR was performed essentially as described (Abbaszade et al., (1999) J. Biol. Chem. 274:23443-23450). […] Taqman-based real-time PCR expression profiling was performed using 25 ng of each cDNA according to the manufacturer's (PE Biosystems) instructions with fluorescence being monitored in real-time with an ABI Prism 7700 (PE Biosystems). Relative expression levels were determined essentially as described (Gibson et al., (1996) Genome Res. 6:995-1001) using standard curves for each transcript. Relative abundance was then determined from these standard curves, subtracting mRNA levels obtained from negative control reactions performed in the absence of reverse transcriptase, and normalized to 18S rRNA levels. […]

As for `CCCCCCCN(CCc1ccc(SC(C)(C)C(=O)O)cc1)C(=O)Nc1ccc(F)cc1F` [GW9578, ureido-thioisobutyric acid], in assay [1], the “Increase of ADRP transcript versus controls” value is “approximately 4 fold” and the “Increase of PDK-4 transcript versus controls” value is “approximately 4 fold”. Besides, the “Induction of PDK-4 mRNA levels in the liver” value in assay [2] is reported as 200 fold.
